Results reported in ChEMBL document CHEMBL1129845, “Digitalis-like compounds: Synthesis and biological evaluation of 3-(aminoalkylthio) derivatives” (Bioorg Med Chem Lett, 1997).
Calls of active or inactive are those of the source. The rule behind the calls is not given here.

Molecular target: not listed separately
Assay: Displacement of [3H]ouabain binding from Na+,K+ -ATPase receptor isolated from dog kidney
Parameters: species or system Canis lupus familiaris

Structure (SMILES)	-Log IC50
C[C@]12CC[C@H](O)C[C@H]1CC[C@@H]1[C@@H]2CC[C@]2(C)[C@@H]([C@@H]3COC(=O)C3)CC[C@]12O	5.6
C[C@]12CC[C@H](S)C[C@H]1CC[C@@H]1[C@@H]2CC[C@]2(C)[C@@H]([C@H]3COC(=O)C3)CC[C@]12O	5.5
C[C@]12CC[C@H](O)C[C@H]1CC[C@@H]1[C@@H]2CC[C@]2(C)[C@@H](C3=CC(=O)OC3)C[C@H]3O[C@]132	6.6
C[C@]12CC[C@H](O)C[C@H]1CC[C@@H]1[C@@H]2CC[C@]2(C)[C@@H](C3=CC(=O)OC3)CC[C@@H]12	5.2
C[C@]12CC[C@H](SCCCN)C[C@H]1CC[C@@H]1[C@@H]2CC[C@]2(C)[C@@H](C3=CC(=O)OC3)CC[C@@H]12	5.8
C[C@]12CC[C@H](SCCN3CCCC3)C[C@H]1CC[C@@H]1[C@@H]2CC[C@]2(C)[C@@H](C3=CC(=O)OC3)CC[C@]12O	6.7
C[C@]12CC[C@H](SCCCN3CCCC3)C[C@H]1CC[C@@H]1[C@@H]2CC[C@]2(C)[C@@H](C3=CC(=O)OC3)CC[C@]12O	6.8
C[C@]12CCC3C(CC[C@@H]4C[C@@H](SCCCN)CC[C@]34C)C1=CC[C@@H]2C1=CC(=O)OC1 (stereo partly drawn)	5.8
CN(C)CCCS[C@H]1CC[C@@]2(C)[C@H](CC[C@@H]3[C@@H]2CC[C@]2(C)[C@@H](C4=CC(=O)OC4)CC[C@]32O)C1	7
C[C@]12CC[C@H](O)C[C@H]1CC[C@@H]1[C@@H]2CC[C@]2(C)[C@@H]([C@H]3COC(=O)C3)CC[C@]12O	5.8
C[C@]12CC[C@H](SCC[N+](C)(C)C)C[C@H]1CC[C@@H]1[C@@H]2CC[C@]2(C)[C@@H](C3=CC(=O)OC3)CC[C@]12O	7
C[C@]12CCC3C(CC[C@@H]4C[C@@H](O)CC[C@]34C)C1=CC[C@@H]2C1=CC(=O)OC1 (stereo partly drawn)	5.5
C[C@]12CC[C@H](S)C[C@H]1CC[C@@H]1[C@@H]2CC[C@]2(C)[C@@H](C3=CC(=O)OC3)CC[C@]12O	6
C[C@]12CC[C@H](O)C[C@H]1CC[C@@H]1[C@@H]2CC[C@]2(C)[C@@H](C3=CC(=O)OC3)CC[C@]12O [DIGITOXIGENIN]	7.2
C[C@]12CC[C@H](SCCCN3CCNCC3)C[C@H]1CC[C@@H]1[C@@H]2CC[C@]2(C)[C@@H](C3=CC(=O)OC3)CC[C@]12O	6.5
C[C@]12CC[C@H](S)C[C@H]1CC[C@@H]1[C@@H]2CC[C@]2(C)[C@@H]([C@@H]3COC(=O)C3)CC[C@]12O	5
C[C@]12CC[C@H](SCCCN)C[C@H]1CC[C@@H]1[C@@H]2CC[C@]2(C)[C@@H]([C@@H]3COC(=O)C3)CC[C@]12O	6.5
C[C@]12CC[C@H](SCCCN)C[C@H]1CC[C@@H]1[C@@H]2CC[C@]2(C)[C@@H](C3=CC(=O)OC3)CC[C@]12O	7.1
C[C@]12CC[C@H](SCCCN)C[C@H]1CC[C@@H]1[C@@H]2CC[C@]2(C)[C@@H](C3=CC(=O)OC3)C[C@H]3O[C@]132	6.6
C[C@]12CC[C@H](SCCCN)C[C@H]1CC[C@@H]1[C@@H]2CC[C@]2(C)[C@@H]([C@H]3COC(=O)C3)CC[C@]12O	6.5
C[C@]12CC[C@H](SCCN)C[C@H]1CC[C@@H]1[C@@H]2CC[C@]2(C)[C@@H](C3=CC(=O)OC3)CC[C@]12O	7.5
C[C@]12CC[C@H](S)C[C@H]1CC[C@@H]1[C@@H]2CC[C@]2(C)[C@@H](C3=CC(=O)OC3)C[C@H]3O[C@]132	5.6

Organism: Canis lupus familiaris
Assay: Displacement of [3H]ouabain binding to Na+,K+ -ATPase receptor isolated from dog kidney; NA = <50% displacement at 10e-5 M

Structure (SMILES)	-Log IC50
C[C@]12CC[C@H](S)C[C@H]1CC[C@@H]1[C@@H]2CC[C@]2(C)[C@@H](C3=CC(=O)OC3)CC[C@@H]12	inactive
